Measured values from patent publication US20230066156A1, “6-SUBSTITUTED, 22-CYANO HYODEOXYCHOLANIC ANALOGUES AND USES THEREOF” (PRECISION BIO-THERAPEUTICS S.R.L., priority 2019, published 2023).

System: TNBS-induced colitis
Assay: TNBS-induced colitis in Gpbar1+/+ and Gpbar1-/- mice
Format: in vivo
Settings: for development and severity of colitis assessed by body weight lost, CDAI and histological sections: 30 mg/kg daily by o.s., FIG. 2A-C
Description: Because macrophages are one of the most abundant leucocytes in the intestinal mucosa and are implicated in the pathogenesis of IBDs (Inflammatory bowel diseases), the effect of PBT110B was investigated in a TNBS-induced colitis (2,4,6-trinitrobenzene sulfonic acid-induced) in Gpbar1+/+ and Gpbar1-/- mice. Gpbar1+/+ and Gpbar1-/- mice were treated with TNBS alone or in combination PBT110B (30 mg/kg). […] In addition, the expression of pro- and anti-inflammatory cytokines in the colon of these animals (FIG. 3) was analyzed. Gpbar1^+/+ and Gpbar1^-/- mice were treated with TNBS alone or in combination PBT110B (30 mg/kg). Values are normalized relative to Gapdh mRNA and are expressed as mean±SEM (n=5); ^#p<0.05. GPBAR1 null mice on C57BL/6NCrl background, and C57BL/6NCrl congenic littermates were originally donated by Dr. […] (Schering-Plough Research Institute, Kenilworth). The colonies were maintained in the animal facility of University of Perugia. Mice were housed under controlled temperatures (22° C.) and photoperiods (12:12-hour light/dark cycle), allowed unrestricted access to standard mouse chow and tap water and allowed to acclimate to these conditions for at least 5 days before inclusion in an experiment. The study was conducted in agreement with the Italian law and the protocol was approved by ethical committee of University of Perugia and by a National Committee of Italian Ministry of Health permit n° 1126/2016-PR. The health and body conditions of the animals were monitored daily by the veterinarian in the animal facility. The study protocol caused minor suffering, however, animals that lost more than 25% of the initial body weight were euthanized. Colitis was induced in mice by TNBS. Mice were fasted for 12 h (day -1) and the day after (day 0) mice were anesthetized, and a 3.5 F catheter inserted into the colon such that the tip was 3 cm proximal to the anus. To induce colitis, 1 mg of 2,4,6-trinitrobenzenesulfonic acid TNBS (Sigma Chemical Co, St Louis, Mo.) in 50% ethanol was administered via catheter into the lumen using a 1 ml syringe (injection volume of 200 μL); control mice received 50% ethanol alone. Animals were monitored daily. At the end of the experiments, the surviving mice were sacrificed and the colon was excised, weighed, and evaluated for macroscopic damage. In some groups of mice, PBT110B dissolved in nitrocellulose 1% was administered daily also by o.s. at the concentration of 30 mg/kg of body weight The severity of colitis was measured each day for each mouse by assessing the body weight, the fecal blood and stool consistency. Each parameter was scored from 0 to 4 and the sum represents the Colitis Disease Activity Index (CDAI). The scoring system was as following: percent of body weight loss: none=0; 1-5%=1; 5-10%=2; 10-20%=3; >20%=4. Stool consistency: normal=0; soft but still formed=1; very soft=2; diarrhea=3; liquid stools that stick to the anus or anal occlusion=4. Fecal blood: none=0; visible in the stool=2; severe bleeding with fresh blood around the anus and very present in the stool=4. Samples of distal colon (2-3 cm from the anus) were fixed in buffered formalin, cut into 5-μm-thick sections (150 μm between each section, four to eight per fragment per colon), and stained with H&E. Colon samples were immediately frozen in liquid nitrogen and stored at -80° C. until used, mechanically homogenated with the aid of a pestle, and the obtained materials re-suspended in 1 ml of Trizol (Thermo ScientificTM). […]

[1] = wild-type mice, 30 mg/kg, Real-Time PCR, FIG. 3

**Q.** `CC[C@]1(O)C[C@H]2[C@@H]3CC[C@H]([C@H](C)CC#N)[C@@]3(C)CC[C@@H]2[C@@]2(C)CC[C@@H](O)C[C@@H]12` [PBT110B, 3α,6α-dihydroxy-6β-ethyl-24-nor-5β-cholan-23-nitrile] was tested. Which “development and severity of colitis assessed by body weight lost, CDAI and histological sections” value (Gpbar1+/+ mice) did it give?
**A.** attenuated

**Q.** And the “development and severity of colitis assessed by body weight lost, CDAI and histological sections” value (Gpbar1-/- mice)?
**A.** failed to do the same

**Q.** And the “beneficial effects on colon cytokine expression (pro-inflammatory cytokines, IL-10)” value (mice lacking the receptor (Gpbar1-/-), 30 mg/kg, FIG. 3)?
**A.** lost

**Q.** And the “expression of pro-inflammatory cytokines (Il-6, Il-1β, TNF-α) in the colon” value [1]?
**A.** reducing

**Q.** And the “expression of the anti-inflammatory cytokine IL-10 in the colon” value [1]?
**A.** increasing
